# Data reported in patent US20020160988A1 (priority 2001, published 2002).
# Read-outs that look alike come from different tables or passages of the source.
# Tests used:
# mice [1] = details: mouse, in vivo
# mice [2] = details: mouse, in vivo; remark: listed apart in the source
# [3] = molecular target: T1, recombinant human acetylcholineesterase (rHuAChE) (Homo sapiens, UniProt P22303); details: for t½(ks): human, recombinant enzyme
# [4] = molecular target: T1, recombinant human acetylcholineesterase (rHuAChE); test: biochemical
# in vivo = details: mouse
# CAR-induced brain edema = tested on: CAR-induced brain edema; set-up: species or system rats; details: rat, in vivo
# [5] = tested on: carrageenan-induced rat paw edema; details: in vivo
# whole blood ChE = tested on: whole blood ChE; set-up: species or system mice; details: mouse, in vivo, 0.13 mg/kg
# [6] = molecular target: T2, human plasma butyrylcholinesterase (HuBChE) (Homo sapiens, UniProt P06276); details: for t½(ks): human, plasma
# [7] = molecular target: T3, fetal bovine serum-AChE (FBS-AChE) (Bos taurus, UniProt P23795); details: for t½(ks): bovine, serum
# T3 sequence (P23795 31-613): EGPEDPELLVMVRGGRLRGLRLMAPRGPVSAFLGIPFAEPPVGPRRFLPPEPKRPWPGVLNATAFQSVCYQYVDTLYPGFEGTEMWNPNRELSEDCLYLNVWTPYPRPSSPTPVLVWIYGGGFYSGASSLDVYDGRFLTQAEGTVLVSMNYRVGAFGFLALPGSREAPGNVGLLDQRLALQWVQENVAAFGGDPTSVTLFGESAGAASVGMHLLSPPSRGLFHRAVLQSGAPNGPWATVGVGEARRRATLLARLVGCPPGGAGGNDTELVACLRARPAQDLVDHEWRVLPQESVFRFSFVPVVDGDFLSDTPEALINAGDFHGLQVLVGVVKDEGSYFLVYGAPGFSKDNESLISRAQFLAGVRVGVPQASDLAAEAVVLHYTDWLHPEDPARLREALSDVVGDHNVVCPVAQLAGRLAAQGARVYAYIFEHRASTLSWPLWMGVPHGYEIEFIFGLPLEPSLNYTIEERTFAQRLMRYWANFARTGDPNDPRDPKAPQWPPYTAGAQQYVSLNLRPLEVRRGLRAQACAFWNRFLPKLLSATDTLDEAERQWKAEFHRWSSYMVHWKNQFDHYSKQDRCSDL
# [8] = molecular target: T3, fetal bovine serum-AChE (FBS-AChE); test: biochemical
# physchem = details: pH 7.4
# [9] = molecular target: T2, human plasma butyrylcholinesterase (HuBChE); test: biochemical
# [10] = molecular target: COX I (bovine seminal vesicles) (Bos taurus, UniProt O62664); test: biochemical; details: read-out: % Inhibition COX I
# COX II (sheep placenta) = COX II (sheep placenta) (Ovis aries, UniProt P79208); test: biochemical; details: read-out: % Inhibition COX II
# COX II (sheep placenta), sequence (P79208 17-603): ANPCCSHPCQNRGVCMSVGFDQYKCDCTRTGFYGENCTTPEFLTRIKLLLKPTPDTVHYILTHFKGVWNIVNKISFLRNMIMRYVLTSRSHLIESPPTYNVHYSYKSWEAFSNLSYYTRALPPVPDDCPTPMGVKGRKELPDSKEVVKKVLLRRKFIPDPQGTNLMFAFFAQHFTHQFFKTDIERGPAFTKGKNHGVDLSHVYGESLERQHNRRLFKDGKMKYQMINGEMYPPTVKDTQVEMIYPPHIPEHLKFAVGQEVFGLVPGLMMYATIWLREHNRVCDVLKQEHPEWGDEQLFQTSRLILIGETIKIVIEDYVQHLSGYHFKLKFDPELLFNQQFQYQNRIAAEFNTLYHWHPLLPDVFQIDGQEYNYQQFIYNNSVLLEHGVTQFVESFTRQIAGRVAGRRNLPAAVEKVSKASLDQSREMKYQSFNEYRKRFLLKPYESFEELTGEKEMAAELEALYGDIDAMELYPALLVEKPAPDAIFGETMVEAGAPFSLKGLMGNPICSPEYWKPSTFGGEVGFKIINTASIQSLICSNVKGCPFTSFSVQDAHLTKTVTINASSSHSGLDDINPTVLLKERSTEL
# T1 sequence (P22303 32-614): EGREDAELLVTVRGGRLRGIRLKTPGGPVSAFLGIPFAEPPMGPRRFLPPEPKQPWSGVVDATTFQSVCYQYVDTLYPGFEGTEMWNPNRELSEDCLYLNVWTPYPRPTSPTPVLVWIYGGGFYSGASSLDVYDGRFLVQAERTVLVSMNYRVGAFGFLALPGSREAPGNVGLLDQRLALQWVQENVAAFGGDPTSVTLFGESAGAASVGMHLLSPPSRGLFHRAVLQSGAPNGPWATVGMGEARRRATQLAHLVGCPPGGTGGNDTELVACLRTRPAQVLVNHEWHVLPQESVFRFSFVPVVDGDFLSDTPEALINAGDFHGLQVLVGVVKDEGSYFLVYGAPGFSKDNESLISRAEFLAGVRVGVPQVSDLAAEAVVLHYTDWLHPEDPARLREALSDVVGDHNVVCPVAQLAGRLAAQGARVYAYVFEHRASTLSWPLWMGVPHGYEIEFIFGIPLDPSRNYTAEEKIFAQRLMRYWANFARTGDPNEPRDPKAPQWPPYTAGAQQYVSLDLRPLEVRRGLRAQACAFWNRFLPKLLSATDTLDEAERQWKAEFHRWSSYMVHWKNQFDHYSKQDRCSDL
# T2 sequence (P06276 29-602): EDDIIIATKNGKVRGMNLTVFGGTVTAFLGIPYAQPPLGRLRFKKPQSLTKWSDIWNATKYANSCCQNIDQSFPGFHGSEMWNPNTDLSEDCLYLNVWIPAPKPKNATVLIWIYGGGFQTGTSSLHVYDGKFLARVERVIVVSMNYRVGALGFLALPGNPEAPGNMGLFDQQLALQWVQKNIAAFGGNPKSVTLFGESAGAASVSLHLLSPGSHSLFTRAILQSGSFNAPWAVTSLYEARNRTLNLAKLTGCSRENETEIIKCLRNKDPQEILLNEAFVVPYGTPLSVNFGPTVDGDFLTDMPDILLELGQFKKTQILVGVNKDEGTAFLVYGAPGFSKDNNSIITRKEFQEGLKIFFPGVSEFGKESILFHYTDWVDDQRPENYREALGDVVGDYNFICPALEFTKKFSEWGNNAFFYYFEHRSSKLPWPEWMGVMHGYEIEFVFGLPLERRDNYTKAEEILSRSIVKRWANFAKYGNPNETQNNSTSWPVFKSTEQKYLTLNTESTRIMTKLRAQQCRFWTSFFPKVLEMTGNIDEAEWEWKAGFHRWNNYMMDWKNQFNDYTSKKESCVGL
# COX I (bovine seminal vesicles), sequence (O62664 25-600): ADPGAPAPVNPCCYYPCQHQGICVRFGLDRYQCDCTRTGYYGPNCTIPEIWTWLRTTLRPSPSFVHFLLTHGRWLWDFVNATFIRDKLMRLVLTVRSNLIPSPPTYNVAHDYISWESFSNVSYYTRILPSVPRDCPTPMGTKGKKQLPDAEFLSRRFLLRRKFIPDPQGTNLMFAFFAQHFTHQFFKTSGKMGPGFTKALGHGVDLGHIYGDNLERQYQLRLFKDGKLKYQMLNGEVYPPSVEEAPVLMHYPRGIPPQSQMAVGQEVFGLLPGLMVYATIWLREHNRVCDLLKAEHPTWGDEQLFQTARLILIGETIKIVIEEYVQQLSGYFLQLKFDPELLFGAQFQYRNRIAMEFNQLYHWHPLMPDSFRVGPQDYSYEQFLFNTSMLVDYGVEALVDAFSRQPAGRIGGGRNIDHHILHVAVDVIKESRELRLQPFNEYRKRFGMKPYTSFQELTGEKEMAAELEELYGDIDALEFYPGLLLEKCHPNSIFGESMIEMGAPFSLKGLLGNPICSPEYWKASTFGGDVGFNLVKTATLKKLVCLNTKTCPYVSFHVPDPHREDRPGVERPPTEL
compound,measurement,setting,value
CNC1(C)C2CCC(C2)C1(C)C (stereo not shown) [mecamylamine],time of maximal IBU-PO-induced hypothermia after pretreatment,mice [1],60 min
CCN(C)C(=O)Oc1cccc([C@H](C)N(C)C)c1 [EXELON],Therapeutic Index (TI = LD50/ED50),mice [2],12.5
"COC(=O)c1cccnc1 [MN, methyl nicotinate]",mode of AChE inhibition,[3],reversible inhibition of AChE
same,IC50,[4],> 100 µM
"CC(C)Cc1ccc(C(C)C(=O)O)cc1 (stereo not shown) [IBU, ibuprofen]",LD50,in vivo; im,> 100 mg/kg
same,brain % water content,CAR-induced brain edema,83%
same,edema level (% EDEMA) after treatment,[5],about 30%
CNC(=O)Oc1ccc2c(c1)[C@]1(C)CCN(C)[C@@H]1N2C [physostigmine],Therapeutic Index (TI = LD50/ED50),mice [2],3.4
3-Dimethylcarbamoyl-1-{7-[2-(4-isobutyl-phenyl)-propionylamino]-heptyl}-pyridinium bromide [IBU-Am-PH],Ki,[3],0.047 µM
same,K′,[3],0.13 min⁻¹
same,ki (bimolecular rate constant),[3],2.8 × 10^6 M^−1m^−1
same,ks × 10^3,[3],27 minutes^−1
"CN(C)C(=O)Oc1ccc[n+](C)c1 [PYR, pyridostigmine]",LD50,in vivo; im,2.1 mg/kg
same,LD50,in vivo; ip,5.1 mg/kg
same,K′,[3],0.40 min⁻¹
same,ki (bimolecular rate constant),[3],2.7 × 10^5 M^−1m^−1
same,ks × 10^3,[3],9.2 minutes^−1
same,t½(ks),[3],1.25 h
same,ChE inhibition,whole blood ChE,less than 20%
same,duration time of ChE inhibition,whole blood ChE,1 to 1.5 h
same,K′,[6],0.08 min⁻¹
same,ki (bimolecular rate constant),[6],7.3 × 10^4 M^−1m^−1
same,ks × 10^3,[6],7.1 minutes^−1
same,t½(ks),[6],1.62 h
same,K′,[7],0.31 min⁻¹
same,ki (bimolecular rate constant),[7],2.5 × 10^5 M^−1m^−1
same,ks × 10^3,[7],10 minutes^−1
same,t½(ks),[7],1.15 h
same,Ki,[8],1.2 µM
CC(C)Cc1ccc(C(C)C(=O)OCCCCCCCCN2CCC=C(OC(=O)N(C)C)C2)cc1 (stereo not shown) [IBU-4H-PO],LD50,in vivo; ip,54.2 mg/kg
same,K′,[3],0.23 min⁻¹
same,ki (bimolecular rate constant),[3],1.9 × 10^4 M^−1m^−1
same,ks × 10^3,[3],6.9 minutes^−1
same,t½(ks),[3],1.67 h
same,Ki,[4],12 µM
same,logD,physchem,2
same,K′,[6],0.19 min⁻¹
same,ki (bimolecular rate constant),[6],1.2 × 10^5 M^−1m^−1
same,ks × 10^3,[6],0.9 minutes^−1
same,t½(ks),[6],13.2 h
same,K′,[7],1.9 min⁻¹
same,ki (bimolecular rate constant),[7],2.8 × 10^4 M^−1m^−1
same,ks × 10^3,[7],20 minutes^−1
same,t½(ks),[7],0.575 h
same,Ki,[9],1.6 µM
same,Ki,[8],66 µM
CN1[C@@H]2CC[C@H]1C[C@@H](OC(=O)C(CO)c1ccccc1)C2 (stereo partly shown) [atropine],effect of pretreatment on IBU-PO-induced hypothermia,mice [1],partially reverses the hypothermia
"COc1ccc2cc([C@H](C)C(=O)O)ccc2c1 [NAPRO, naproxen]",inhibition at 1 µM,[10],37%
same,inhibition at 1 µM,COX II (sheep placenta),85%
"COc1ccc2c(c1)c(CC(=O)O)c(C)n2C(=O)c1ccc(Cl)cc1 [INDO, indomethacin]",LD50,in vivo; ip,12.4 mg/kg
same,edema level (% EDEMA) after treatment,[5],about 30%
"COC(=O)C1=CCCN(C)C1 [Arecoline, arecoline]",mode of AChE inhibition,[3],reversible inhibition of AChE
same,IC50,[4],> 100 µM
Nc1c2c(nc3ccccc13)CCCC2 [TACRINE],Therapeutic Index (TI = LD50/ED50),mice [2],3.5
"CC(=O)Oc1ccccc1C(=O)O [ASPIRIN, aspirin]",LD50,in vivo; ip,> 100 mg/kg
